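All cell lines were grown in 96-well plates and treated with compound for 48 hours. Here, GI50 denotes the concentration required for 50% inhibition of growth. TGI is the concentration that stops growth completely.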

Some test systems named below: HL-60(TB) leukemia; RPMI-8226 leukemia; MDA-MB-435; SK-MEL-2 melanoma; SN12C renal; ACHN renal; PC-3 prostate; NCI-H23 lung; SR leukemia; IGROV1 ovarian.
Experiment in all cases: NCI anticancer screen, dose series, 48 h

Turning to `COc1ccc(-c2nn3c(-c4cc(F)c(Cl)cc4Cl)nnc3s2)cc1`, the GI50 in the assay with HL-60(TB) leukemia is 15.6 µM; in the assay with RPMI-8226 leukemia it was 19.6 µM; with MDA-MB-435, 4.86 µM; in the assay with SK-MEL-2 melanoma, 25.4 µM; in the assay on SN12C renal, 43.4 µM; with ACHN renal, 37.8 µM. The GI50 in the assay with PC-3 prostate is 34.1 µM; with NCI-H23 lung, 29.9 µM. Moreover, the TGI with HL-60(TB) leukemia was 43.9 µM; in the assay on RPMI-8226 leukemia, 52.7 µM; in the assay on MDA-MB-435, over 100 µM; in the assay on SK-MEL-2 melanoma it was 60.1 µM; with SN12C renal, over 100 µM; in the assay on ACHN renal, over 100 µM. Besides, the TGI in the assay on PC-3 prostate and in the assay with NCI-H23 lung was over 100 µM each time.
Take `CCCCCCCCCCCCCCCCN1CC2CCCCC2C1` (configuration not stated): the GI50 with SR leukemia was 2.07 µM; in the assay with RPMI-8226 leukemia it was 1.97 µM; in the assay with MDA-MB-435 it was 8.57 µM; in the assay on IGROV1 ovarian, 3.58 µM; in the assay with SK-MEL-2 melanoma it was 12.1 µM; in the assay with SN12C renal it was 8.26 µM. Moreover, the GI50 was 15.7 µM in the assay on ACHN renal, 2.11 µM with PC-3 prostate and 3.14 µM with NCI-H23 lung. Also, the TGI was found to be 4.64 µM in the assay on SR leukemia; 4.06 µM in the assay with RPMI-8226 leukemia; 24.3 µM in the assay on MDA-MB-435; 12.2 µM in the assay with IGROV1 ovarian; 26.3 µM in the assay on SK-MEL-2 melanoma; 21.3 µM with SN12C renal. Further, the TGI with ACHN renal turned out to be 31.1 µM; with PC-3 prostate, 5.56 µM; in the assay with NCI-H23 lung it was 9.94 µM.
`CCc1nccc2c1nc(-c1nonc1N)n2CC`: the GI50 in the assay on HL-60(TB) leukemia is over 25 µM; in the assay on RPMI-8226 leukemia, over 25 µM; in the assay on MDA-MB-435, over 25 µM; in the assay on IGROV1 ovarian, 16.8 µM; in the assay on SK-MEL-2 melanoma it was over 25 µM; with SN12C renal it was over 25 µM. Moreover, the GI50 is over 23.2 µM in the assay with ACHN renal, over 25 µM in the assay on PC-3 prostate and over 25 µM with NCI-H23 lung. Also, the TGI in the assay with HL-60(TB) leukemia, in the assay on RPMI-8226 leukemia, in the assay with MDA-MB-435, in the assay on IGROV1 ovarian, in the assay with SK-MEL-2 melanoma and in the assay on SN12C renal was over 25 µM each time. The TGI with ACHN renal, in the assay on PC-3 prostate and in the assay on NCI-H23 lung was over 25 µM each time.
Turning to `COc1ccc2c(c1)/C(=C\c1c(C)nc3sccn13)C(=O)N2`, the GI50 with SR leukemia is 0.0309 µM; in the assay with HL-60(TB) leukemia it was 0.136 µM; with IGROV1 ovarian, under 0.0252 µM; with SK-MEL-2 melanoma, 0.162 µM; in the assay on SN12C renal, 0.0889 µM; in the assay on PC-3 prostate it was 0.179 µM. Moreover, in the assay on NCI-H23 lung, the GI50 is 0.382 µM. The TGI is 0.38 µM in the assay with SR leukemia; 0.534 µM in the assay on HL-60(TB) leukemia; over 26.4 µM in the assay with RPMI-8226 leukemia; 3.69 µM with IGROV1 ovarian; over 83.7 µM in the assay on SK-MEL-2 melanoma; over 91.7 µM in the assay with SN12C renal. For the same compound, the TGI with ACHN renal is 69.4 µM; in the assay on PC-3 prostate, over 100 µM; with NCI-H23 lung, over 100 µM.
Take `Oc1cccc2ccc(N/N=C/c3cc(CN4CCCCC4)c(O)c4ncccc34)nc12`: the GI50 in the assay with HL-60(TB) leukemia was 0.0345 µM; in the assay on RPMI-8226 leukemia, 0.0371 µM; with MDA-MB-435 it was 0.0444 µM; with IGROV1 ovarian it was 0.173 µM; with SK-MEL-2 melanoma, 0.0288 µM; with SN12C renal it was 0.0931 µM. For the same compound, the GI50 in the assay with ACHN renal is 0.0344 µM; with PC-3 prostate it was 0.0417 µM; in the assay with NCI-H23 lung, 0.0485 µM. In addition, the TGI with HL-60(TB) leukemia worked out at 1.29 µM; with RPMI-8226 leukemia, 9.29 µM; in the assay with MDA-MB-435, 1.73 µM; in the assay on IGROV1 ovarian, 18.4 µM; in the assay on SK-MEL-2 melanoma, 0.0814 µM; in the assay on SN12C renal, 12.9 µM. Moreover, the TGI came out at 1.19 µM in the assay on ACHN renal, 1.86 µM with PC-3 prostate and 1.45 µM with NCI-H23 lung.
Regarding `COc1ccc(-c2ccc(/C=N/n3c(COc4ccc(Cl)cc4Cl)nn(CN4CCOCC4)c3=S)o2)c([N+](=O)[O-])c1`, the GI50 is 27.7 µM in the assay on SR leukemia; 19.1 µM with HL-60(TB) leukemia; 12.7 µM in the assay with RPMI-8226 leukemia; 18.6 µM in the assay with MDA-MB-435; 24.5 µM in the assay on SN12C renal; 36.1 µM in the assay on ACHN renal. Moreover, the GI50 in the assay on PC-3 prostate is 18.6 µM; with NCI-H23 lung, 22.5 µM. The TGI was 68.4 µM in the assay with SR leukemia; 41.1 µM with HL-60(TB) leukemia; 40.1 µM with RPMI-8226 leukemia; 51.5 µM in the assay on MDA-MB-435; 67.7 µM with SN12C renal; over 100 µM in the assay on ACHN renal. Moreover, the TGI was 50.6 µM with PC-3 prostate and 66.7 µM with NCI-H23 lung.
Regarding `O=c1cc(-c2ccccc2)[nH]c2ccccc12`, the TGI with SR leukemia was over 100 µM; with HL-60(TB) leukemia, over 100 µM; in the assay with RPMI-8226 leukemia, over 63 µM; in the assay on IGROV1 ovarian, over 33.7 µM; in the assay on SK-MEL-2 melanoma it was over 100 µM; in the assay on SN12C renal it was over 100 µM. The TGI in the assay on ACHN renal, in the assay with PC-3 prostate and in the assay on NCI-H23 lung was over 100 µM in each case. The GI50 in the assay on HL-60(TB) leukemia was 0.52 µM; in the assay on RPMI-8226 leukemia, 1.18 µM; with IGROV1 ovarian it was 2.35 µM; in the assay with SK-MEL-2 melanoma it was over 100 µM; in the assay with SN12C renal, 1.73 µM; in the assay with ACHN renal it was 0.858 µM. In addition, the values for the GI50 in the assay with PC-3 prostate and with NCI-H23 lung were 0.403 µM and 1.16 µM, respectively.
Turning to `CCCCCCCCN=C(N)c1ccc(N2CCN(c3ccc(C(N)=NCCCCCCCC)cc3)CC2)cc1`, the GI50 with SR leukemia is 0.97 µM; with HL-60(TB) leukemia, 1.17 µM; in the assay with MDA-MB-435, 1.25 µM; in the assay on IGROV1 ovarian, 1.62 µM; in the assay with SK-MEL-2 melanoma, 1.69 µM; with SN12C renal, 1.09 µM. Further, the GI50 with ACHN renal was 2.37 µM; in the assay on PC-3 prostate it was 22.7 µM; in the assay on NCI-H23 lung it was 1.52 µM. Moreover, the TGI in the assay with SR leukemia is 2.26 µM; in the assay with HL-60(TB) leukemia it was 4.66 µM; in the assay on MDA-MB-435, 3.23 µM; with IGROV1 ovarian it was over 50 µM; with SK-MEL-2 melanoma, over 50 µM; in the assay on SN12C renal it was 3.05 µM. Further, the figures for the TGI in the assay on ACHN renal, in the assay with PC-3 prostate and with NCI-H23 lung were 12.7 µM, over 50 µM and 6.49 µM, respectively.

The values above are taken from PubChem BioAssay (NCI).
